Results on five molecules are retold here after ChEMBL document CHEMBL1157187, “Chemical synthesis of 2beta-amino-5alpha-androstane-3alpha,17beta-diol N-derivatives and their antiproliferative effect on HL-60 human leukemia cells” (Bioorg Med Chem, 2008).

In general, inhibition refers to the percentage by which the read-out fell short of the control. Low values mean a weak effect, high ones a strong effect. What is called IC50 is the concentration needed to halve the response being measured.

In experiment [1] the test system is HL-60. Put plainly: Growth inhibition of human HL60 cells at 1 uM after 3 days. It counts as functional. As to conditions: HL-60, 72 h.
For experiment [2], the system named is HL-60. Put plainly: Increase in CD11b/CD14 double expression in human HL60 cells. It counts as functional.
The test system of experiment [3] is HL-60. Put plainly: Growth inhibition of human HL60 cells after 3 days. The experiment is classed as functional, cell-based. The following applies: HL-60, 72 h.
Experiment [4] relates to HL-60. Put plainly: Increase in CD11b expression in human HL60 cells. It counts as functional.
Experiment [5] relates to HL-60. Put plainly: Growth inhibition of human HL60 cells at 10 uM after 3 days. It counts as functional. The following applies: HL-60, 72 h.

`CCCCCCCCN[C@H]1C[C@@]2(C)[C@@H](CC[C@@H]3[C@@H]2CC[C@]2(C)[C@@H](O)CC[C@@H]32)C[C@@H]1O` had an inhibition at 1 µM with HL-60 [1] of 0%. Besides, the figures for the Activity in the experiment on HL-60 [2] and with HL-60 [4] were 10% and 29%, respectively. Besides, the IC50 in the experiment on HL-60 [3] was 6.4 µM. This molecule yielded an inhibition at 10 µM in the experiment with HL-60 [5] of 99.2%.
The like results for `C[C@]12C[C@H](NCCC(c3ccccc3)c3ccccc3)[C@@H](O)C[C@@H]1CC[C@@H]1[C@@H]2CC[C@]2(C)[C@@H](O)CC[C@@H]12` were, in that order, 12.9%, 39%, 58%, 3.1 µM and 95.2%.
Consider `COc1cccc2c1C(=O)c1c(O)c3c(c(O)c1C2=O)C[C@@](O)(C(=O)CO)C[C@@H]3O[C@H]1C[C@H](N)[C@H](O)[C@H](C)O1` [DOXORUBICIN], for which, in the experiment on HL-60 [1], the inhibition at 1 µM was found to be 91.8%. This molecule showed an IC50 in the experiment on HL-60 [3] of 0.1 µM. In addition, the inhibition at 10 µM with HL-60 [5] came to 94.6%.
As for `CCN1CCN([C@H]2C[C@@]3(C)[C@@H](CC[C@@H]4[C@@H]3CC[C@]3(C)[C@@H](O)CC[C@@H]43)C[C@@H]2O)CC1`, in the experiment with HL-60 [1], 1 µM produced 0% inhibition. This molecule came in with an inhibition at 10 µM in the experiment with HL-60 [5] of 4.8%.
Take `CCCCCCCCCN1CCN([C@H]2C[C@@]3(C)[C@@H](CC[C@@H]4[C@@H]3CC[C@]3(C)[C@@H](O)CC[C@@H]43)C[C@@H]2O)CC1`: at 1 µM the inhibition with HL-60 [1] was 9.1%. Besides, the figures for the Activity in the experiment with HL-60 [2] and with HL-60 [4] were 32% and 55%, respectively. The IC50 in the experiment on HL-60 [3] worked out at 4.2 µM. Testing at 10 µM with HL-60 [5] gave an inhibition of 99.8%.
